Measurements published in patent publication US11529397B2, “Method of treating mucopolysaccharidosis type IVA” (Saint Louis University, priority 2018, dated 2022).

B1: N-acetylgalactosamine-6-sulfatase (protein, listed as Homo sapiens)
chain: APQPPNILLLLMDDMGWGDLGVYGEPSRETPNLDRMAAEGLLFPNFYSANPLCSPSRAALLTGRLPIRNGFYTTNAHARNAYTPQEIVGGIPDSEQLLPELLKKAGYVSKIVGKWHLGHRPQFHPLKHGFDEWFGSPNCHFGPYDNKARPNIPVYRDWEMVGRYYEEFPINLKTGEANLTQIYLQEALDFIKRQARHHPFFLYWAVDATHAPVYASKPFLGTSQRGRYGDAVREIDDSIGKILELLQDLHVADNTFVFFTSDNGAALISAPEQGGSNGPFLCGKQTTFEGGMREPALAWWPGHVTAGQVSHQLGSIMDLFTTSLALAGLTPPSDRAIDGLNLLPTLLQGRLMDRPIFYYRGDTLMAATLGQHKAHFWTWTNSWENFRQGIDFCPGQNVSGVTTHNLEDHTKLPLIFHLGRDPGERFPLSFASAEYQEALSRITSVVQQHQEALVPAQPQLNVCNWAVMNWAPPGCEKLGKCLTPPESIPKKCLWSH
notes: recombinant human GALNS produced in CHO cells, used for ERT and oral tolerance

How the values were obtained:
[1] = tested on: splenocytes; assay: Secreted cytokines of splenocytes in Morquio A mouse models and WT mice treated by ERT (Examples 10-13); assay type: cell-based; conditions: for IL-4 secretion / IL-5 secretion / IL-13 secretion: MTol mice
Description: (§1) Morquio A mouse models: a). […] 14(22): p. 3321-35).c). Missense mutation mice (Galnstm (C76S) SLU C2) (Tomatsu et al. (2007) Mol Genet Metab., 91(3): p. 251-8), and wild-type C57BL6 mice were treated by ERT. […] A control group received PBS.
(§2) The suspension was centrifuged at 1,000 rpm during 10 minutes.
Cytokines were determined in the cell culture supernatants. […] Cells were centrifuged at 1000 rpm during 10 min. Secreted cytokines (IL-4, IL-5, IL-13, and IFN-γ) in the collected supernatants were detected by a bead immunoassay kit which allow the measurement of multiple proteins simultaneously (LUMINEX xMAP Technology, using a Millipore Milliplex™ kit) according to manufacturer's instructions.

[2] = tested on: MKC mice; assay: Oral tolerance induction: secreted cytokines after GALNS in vitro stimulation (Examples 15-18); assay type: in vivo, mouse; conditions: for IFN-γ secretion after oral treatment: oral 50, 100 or 500 μg, GALNS in vitro stimulation
Text: (§3) Control groups (7 and 8) received PBS alone.
Secreted cytokines (IL-4, IL-5, IL-10, IL-13 and IFN-γ) in the collected supernatants were detected by a bead immunoassay kit which allow the measurement of multiple proteins simultaneously (LUMINEX xMAP Technology, using a Millipore Milliplex™) kit according manufacturer's instructions (FIG. 6).

[3] = tested on: splenocytes; assay: Splenocytes proliferation in Morquio A mouse models and WT mice treated by ERT (Example 9); assay type: cell-based
Description: as §1, §2
Thymidine incorporation was measured by β-Scintillation counter (Trilux Microbeta Counter) Mirano-Bascos, et al. (2010) J Virol. 84(7): p. 3303-11).

[4] = tested on: MKC mice; assay: Regulatory markers (CTLA-4, TGF-β) mRNA in Peyer patches after induction of tolerance (Example 21); assay type: in vivo, mouse; conditions: real-time PCR, oral 50, 100 or 500 μg
Text: FIG. 25. Up-regulation of TGF-β expression after induction of tolerance in mice PP. […] Control groups were fed with PBS. […] The fold change in expression was related to the values of non-tolerized group. GAPDH was using as a housekeeping gene for the data normalization.
FIG. 26. Up-regulation of CTLA-4 expression after induction of tolerance in mice PP. […] Control groups were fed with PBS. […] The fold change in expression was related to the values of non-tolerized group. GAPDH was using as a housekeeping gene for the data normalization.
Regulatory Markers Evaluation in Peyer Patches (PP) after Induction of Tolerance. […] Most of the mice presented up-regulation of these regulatory molecules when compare with the non-tolerized group.

[5] = tested on: MKC mice; assay: Oral tolerance induction: GALNS specific IgG plasma levels by ELISA (Example 19); assay type: in vivo, mouse
Description: as §3
An indirect ELISA technique was used to detect plasma IgG and IgE antibodies against GALNS in treated and untreated mice. […] The plates were blocked with 3% Casein in PBS for 1 h at room temperature in a wet chamber. After two washes, first with TTBS (10 mMTris, 150 mM NaCl, 0.05% Tween20, pH 7.5), and then with TBS (10 mM Tris, 150 mM NaCl, 0.05%, pH 7.5), […] of mice plasma samples diluted 1:500, for IgE and 1:1,000 for IgG, in TTBS were added to the plate and incubated 2 h at 37° C. in a wet chamber. Four washes with TTBS were performed. 100 μl of anti-mouse IgE-HRP (Thermo Scientific) 1:1,000 in TTBS or IgG-Peroxidase (Sigma) 1:5,000 dilution in TTBS were applied. After three washes with TTBS, followed by one wash with TBS, the experiment was developed with the substrate TMB (3,3′,5,5′Tetramethylbenzidine). The enzymatic reaction was stopped with IN HCl solution and the absorbance was measured at 450 nm in a Multiskan® EL800 (Bio-Tek Instruments). Plasma concentrations of IgG antibodies anti-GALNS were derived by extrapolation of the absorbance values from a calibration curve using a mAb anti-GALNS.

[6] = tested on: splenocytes; assay: Splenocyte proliferation after in vitro stimulation with peptides or GALNS (Examples 2, 4); assay type: cell-based, mouse; conditions: for proliferation of splenocytes relative to age of the animal and length of treatment: MKC mice, weeks of infusion
Description: Mice (MKC) genetically engineered not to express GALNS were used in these examples. […] 200 μl of the emulsion were administered as a subcutaneous injection. […] Control mice (n=2) were immunized with PBS emulsified in CFA and IFA respectively (Chung et al. (2005) J. Leukoc Biol. 77(6):906-13)). […] A control group (n=5) received PBS (Tomatsu et al. (2008) Hum Mol Genet. 15; 17(6):815-24). […]
Ten days after the last immunization or the last infusion, the mice were euthanized and the spleen was aseptically removed. […] The suspension was centrifuged at 1000 rpm […]. The red blood cells were lysed using a hypotonic lysis buffer (Sigma® R7757). […] Cells were pulsed with 1 JpCi of [3H]thymidine for the last 18 h of incubation. [3H]thymidine incorporation was measured by […] (Trilux Microbeta Counter). The Stimulation Index (SI) was calculated as the mean value of the three wells for each condition divided by the mean value of the unstimulated cells (Mirano-Bascos (2010) J Virol. 84(7):3303-11).

[7] = tested on: splenocytes; assay: Screening of peptides by splenocytes proliferation, retest in MKC mice (Examples 5-6); assay type: cell-based, mouse; conditions: MKC mice, 16, 22 and 24 infusions; with higher number of infusions
Description: of body weight through the tail vein. A control group received PBS. […] The suspension was centrifuged at 1,000 rpm during 10 minutes. […] The specificity of cellular response against the peptides or the complete enzyme in the in vitro stimulation was determined by splenocyte proliferation or cytokine secretion in ERT treated mice or PBS injected control mice. […] 3H-Thymidine incorporation was measured by β-Scintillation counter (Trilux Microbeta Counter). Proliferation data are expressed as counts per minute (cpm) values (FIG. 5). (Mirano-Bascos et al. (2010) J Virol. 84(7): p. 3303-11).

[8] = oral 50 μg, one week after the last infusion

Molecule | IFN-γ secretion, MKC vs MTol mice treated by ERT, p or significance [1] | IL-4 secretion [1] | IL-5 secretion [1] | IL-13 secretion [1] | specific cellular response after splenocytes in vitro stimulation ([1]; mice treated by ERT, compared with GALNS stimulation) | IFN-γ secretion after oral treatment [2] | splenocytes proliferation, ERT treated vs PBS controls ([3]; C2 mice) | splenocytes proliferation, ERT treated vs PBS controls ([3]; MKC mice) | splenocytes proliferation, ERT treated vs PBS controls ([3]; WT mice) | CTLA-4 expression in Peyer patches vs non-tolerized group [4] | TGF-β expression in Peyer patches vs non-tolerized group [4] | reduction in GALNS specific IgG plasma levels vs non-tolerized mice, p or words [5, 8] | reduction in GALNS specific IgG plasma levels vs non-tolerized mice, p or words ([5]; oral 100 μg) | reduction in GALNS specific IgG plasma levels vs non-tolerized mice, p or words ([5]; oral 500 μg) | proliferation of splenocytes relative to age of the animal and length of treatment [6] | splenocyte proliferation response ([6]; splenocytes of MKC mice treated by ERT with GALNS, in vitro peptide stimulation) | relationship between number of weekly i.v. infusions and cpm values of splenocytes proliferation [7] | IL-10 secretion after oral treatment ([2]; mice treated orally)
QQHQEALVPAQPQLNVTNWA (listed as Homo sapiens) [Peptide I10] | 0.044 | did not present secretion of IL-4 | did not present secretion of IL-5 | did not show any secretion of IL-13 | very similar to the one observed by in vitro stimulation with GALNS | down-regulated | statistically significant difference | statistically significant | statistically significant difference | predominantly up-regulated | observed in both groups | 0.0086 | same levels or in some cases higher levels | same levels or in some cases higher levels | highest response at 16 weeks | strong response | lower levels of proliferation | 
B1 | not statistically significant | did not present secretion of IL-4 | did not present secretion of IL-5 | did not show any secretion of IL-13 |  | did not show any modulation | statistically significant difference | statistically significant | statistically significant difference |  | observed in both groups | same levels or in some cases higher levels | 0.033 |  | highest response at 16 weeks |  | lower levels of proliferation | down-regulation of IL-10
